Paper PMC5218480 (PLoS ONE, 2017)

Tested on: MV-4-11 cells
Test: Gene expression microarray analysis (Affymetrix PrimeView) and GSEA
Assay type: cell-based, human
Design: RFU PODN (11730768_x_at) / Fold change /veh PODN (11730768_x_at) / RFU LINC00158 (11744669_a_at) / Fold change /veh LINC00158 (11744669_a_at) / RFU DUSP10 (11751237_a_at) / Fold change /veh DUSP10 (11751237_a_at) / RFU ID3 (11757404_x_at) / Fold change /veh ID3 (11757404_x_at) / RFU PLEKHG5 (11737974_s_at) / Fold change /veh PLEKHG5 (11737974_s_at) / RFU LRRC4B (11730491_at) / Fold change /veh LRRC4B (11730491_at) / RFU GIMAP4 (11747438_a_at) / Fold change /veh GIMAP4 (11747438_a_at) / RFU KRT8 (11758183_x_at) / Fold change /veh KRT8 (11758183_x_at) / RFU CNN1 (11734310_a_at) / Fold change /veh CNN1 (11734310_a_at) / RFU VPS37D (11726825_at) / Fold change /veh VPS37D (11726825_at) / RFU C10orf10 (11716522_x_at) / Fold change /veh C10orf10 (11716522_x_at) / RFU KIR2DL2 /// KIR2DL4 /// KIR2DL5A /// KIR2DL5B /// KIR2DS1 /// KIR2DS2 /// KIR2DS3 /// KIR2DS4 /// KIR3DL3 /// KIR3DL3 /// KIR3DS1 (11738374_at) / Fold change /veh KIR2DL2 /// KIR2DL4 /// KIR2DL5A /// KIR2DL5B /// KIR2DS1 /// KIR2DS2 /// KIR2DS3 /// KIR2DS4 /// KIR3DL3 /// KIR3DL3 /// KIR3DS1 (11738374_at) / RFU C1QL1 (11718748_at) / Fold change /veh C1QL1 (11718748_at) / RFU TMPRSS4 (11747572_a_at) / Fold change /veh TMPRSS4 (11747572_a_at) / RFU HAMP (11756126_x_at) / Fold change /veh HAMP (11756126_x_at) / RFU RNFT2 (11725882_a_at) / Fold change /veh RNFT2 (11725882_a_at) / RFU NR4A2 (11747474_a_at) / Fold change /veh NR4A2 (11747474_a_at) / RFU ABCC12 (11746883_a_at) / Fold change /veh ABCC12 (11746883_a_at) / RFU TMEM136 (11760407_x_at) / Fold change /veh TMEM136 (11760407_x_at) / RFU CLDN22 /// WWC2 (11732394_at) / Fold change /veh CLDN22 /// WWC2 (11732394_at) / RFU HLA-DPB1 (11760878_x_at) / Fold change /veh HLA-DPB1 (11760878_x_at) / RFU SPINT1 (11716480_a_at) / Fold change /veh SPINT1 (11716480_a_at) / RFU GAP43 (11754022_s_at) / Fold change /veh GAP43 (11754022_s_at) / RFU A4GNT (11735810_at) / Fold change /veh A4GNT (11735810_at) / RFU PRB3 (11715151_x_at) / Fold change /veh PRB3 (11715151_x_at) / RFU TUBB4B (11761932_at) / Fold change /veh TUBB4B (11761932_at) / RFU CAPN14 (11732068_a_at) / Fold change /veh CAPN14 (11732068_a_at) / RFU TMCC2 (11721928_a_at) / Fold change /veh TMCC2 (11721928_a_at) / RFU IRGQ (11745062_a_at) / Fold change /veh IRGQ (11745062_a_at) / RFU FAM174B (11720279_a_at) / Fold change /veh FAM174B (11720279_a_at) / RFU TMPRSS4 (11748680_a_at) / Fold change /veh TMPRSS4 (11748680_a_at) / RFU FAM212B (11763350_a_at) / Fold change /veh FAM212B (11763350_a_at) / RFU PLEKHG5 (11743358_a_at) / Fold change /veh PLEKHG5 (11743358_a_at) / RFU ZSCAN30 (11745921_a_at) / Fold change /veh ZSCAN30 (11745921_a_at) / RFU CMKLR1 (11741424_a_at) / Fold change /veh CMKLR1 (11741424_a_at) / RFU LOC101060620 /// MAPK8IP1 (11723275_at) / Fold change /veh LOC101060620 /// MAPK8IP1 (11723275_at) / RFU SPTSSB (11747773_x_at) / Fold change /veh SPTSSB (11747773_x_at) / RFU PRSS12 (11739890_at) / Fold change /veh PRSS12 (11739890_at) / RFU BIN1 (11741810_x_at) / Fold change /veh BIN1 (11741810_x_at) / RFU WNT11 (11732464_a_at) / Fold change /veh WNT11 (11732464_a_at) / RFU C10orf10 (11716521_a_at) / Fold change /veh C10orf10 (11716521_a_at) / RFU C5orf56 (11738089_at) / Fold change /veh C5orf56 (11738089_at) / RFU CYB561 (11721691_x_at) / Fold change /veh CYB561 (11721691_x_at) / RFU ANKRD19P (11752326_a_at) / Fold change /veh ANKRD19P (11752326_a_at) / RFU OR2T12 /// OR2T33 /// OR2T8 (11738714_s_at) / Fold change /veh OR2T12 /// OR2T33 /// OR2T8 (11738714_s_at) / RFU VCAN (11748164_a_at) / Fold change /veh VCAN (11748164_a_at) / RFU JSRP1 (11732532_at) / Fold change /veh JSRP1 (11732532_at) / RFU KRTAP10-11 (11738290_x_at) / Fold change /veh KRTAP10-11 (11738290_x_at) / RFU MYO3A (11730013_a_at) / Fold change /veh MYO3A (11730013_a_at) / RFU EBF3 (11725865_a_at) / Fold change /veh EBF3 (11725865_a_at) / RFU CAMK2N1 (11719241_x_at) / Fold change /veh CAMK2N1 (11719241_x_at) / RFU C5orf56 (11738088_a_at) / Fold change /veh C5orf56 (11738088_a_at) / RFU OLFML3 (11715873_a_at) / Fold change /veh OLFML3 (11715873_a_at) / RFU LOC100653217 /// NTM (11731650_a_at) / Fold change /veh LOC100653217 /// NTM (11731650_a_at) / RFU MAPK11 (11762145_a_at) / Fold change /veh MAPK11 (11762145_a_at) / RFU FIZ1 (11724087_x_at) / Fold change /veh FIZ1 (11724087_x_at) / RFU OASL (11726364_x_at) / Fold change /veh OASL (11726364_x_at) / RFU SOX15 (11748057_x_at) / Fold change /veh SOX15 (11748057_x_at) / RFU CD79A (11719716_a_at) / Fold change /veh CD79A (11719716_a_at) / RFU HIST1H1D (11736915_at) / Fold change /veh HIST1H1D (11736915_at) / RFU CASKIN2 (11723855_a_at) / Fold change /veh CASKIN2 (11723855_a_at) / RFU LOC730098 (11760151_x_at) / Fold change /veh LOC730098 (11760151_x_at) / RFU OR4N2 (11742367_at) / Fold change /veh OR4N2 (11742367_at) / RFU PRRT2 (11749266_a_at) / Fold change /veh PRRT2 (11749266_a_at) / RFU SNX32 (11753110_a_at) / Fold change /veh SNX32 (11753110_a_at) / RFU CDHR5 (11726645_a_at) / Fold change /veh CDHR5 (11726645_a_at) / RFU RCAN1 (11760418_a_at) / Fold change /veh RCAN1 (11760418_a_at) / RFU FAM167A (11723789_a_at) / Fold change /veh FAM167A (11723789_a_at) / RFU FAM26E (11764081_at) / Fold change /veh FAM26E (11764081_at) / RFU ISYNA1 (11749810_s_at) / Fold change /veh ISYNA1 (11749810_s_at) / RFU ACY1 (11761880_at) / Fold change /veh ACY1 (11761880_at) / RFU 11764098_at / Fold change /veh 11764098_at / RFU SAMD14 (11745864_x_at) / Fold change /veh SAMD14 (11745864_x_at) / RFU NPB (11741838_a_at) / Fold change /veh NPB (11741838_a_at) / RFU TMPRSS6 (11731388_a_at) / Fold change /veh TMPRSS6 (11731388_a_at) / RFU KRTAP10-2 (11738614_at) / Fold change /veh KRTAP10-2 (11738614_at) / RFU ARHGAP8 /// PRR5-ARHGAP8 (11727945_x_at) / Fold change /veh ARHGAP8 /// PRR5-ARHGAP8 (11727945_x_at) / RFU KRTAP5-7 /// NADSYN1 (11734609_at) / Fold change /veh KRTAP5-7 /// NADSYN1 (11734609_at) / RFU RASL12 (11751679_a_at) / Fold change /veh RASL12 (11751679_a_at) / RFU CDKN2B (11736163_a_at) / Fold change /veh CDKN2B (11736163_a_at) / RFU PRF1 (11729649_at) / Fold change /veh PRF1 (11729649_at) / RFU, ZNF638 /// ZNF638-IT1 / Fold change vs veh, ZNF638 /// ZNF638-IT1 / RFU, PANK3 / Fold change vs veh, PANK3 / RFU, SH3YL1 / Fold change vs veh, SH3YL1 / RFU, ZEB2 / Fold change vs veh, ZEB2 / RFU, NRIP1 / Fold change vs veh, NRIP1 / RFU, PTTG1IP / Fold change vs veh, PTTG1IP / RFU, CAPN2 / Fold change vs veh, CAPN2 / RFU, MED14 / Fold change vs veh, MED14 / RFU, SNORA58 / Fold change vs veh, SNORA58 / RFU, C1orf63 / Fold change vs veh, C1orf63 / RFU, LRRFIP1 / Fold change vs veh, LRRFIP1 / RFU, NDUFAF7 / Fold change vs veh, NDUFAF7 / RFU, SLC12A2 / Fold change vs veh, SLC12A2 / RFU, IBTK / Fold change vs veh, IBTK / RFU, ESF1 / Fold change vs veh, ESF1 / Fold change vs veh, TMEM50B / RFU, TAOK1 / Fold change vs veh, TAOK1 / RFU, ACBD3 / Fold change vs veh, ACBD3 / RFU, TMA16 / Fold change vs veh, TMA16 / RFU, RWDD3 / Fold change vs veh, RWDD3 / RFU, BCAT1 / Fold change vs veh, BCAT1 / RFU, EDEM3 / Fold change vs veh, EDEM3 / RFU, TMEM33 / Fold change vs veh, TMEM33 / RFU, WDR75 / Fold change vs veh, WDR75 / RFU, AHCTF1 / Fold change vs veh, AHCTF1 / RFU, TFRC / Fold change vs veh, TFRC / RFU, ZDHHC17 / Fold change vs veh, ZDHHC17 / RFU, NOM1 / Fold change vs veh, NOM1 / RFU, ARL8B / Fold change vs veh, ARL8B / RFU, ZBTB11 / Fold change vs veh, ZBTB11 / RFU, TAMM41 / Fold change vs veh, TAMM41 / RFU, KIAA1704 /// LOC100996395 / Fold change vs veh, KIAA1704 /// LOC100996395 / RFU, ING1 / Fold change vs veh, ING1 / RFU, TRMT61B / Fold change vs veh, TRMT61B / RFU, FUBP3 / Fold change vs veh, FUBP3 / RFU, TP53 / Fold change vs veh, TP53 / RFU, TNKS2 / Fold change vs veh, TNKS2 / RFU, ZFP14 / Fold change vs veh, ZFP14 / RFU, ACTR2 / Fold change vs veh, ACTR2 / RFU, PPP3R1 / Fold change vs veh, PPP3R1 / RFU, PIK3R1 / Fold change vs veh, PIK3R1 / RFU, HNRNPA1 / Fold change vs veh, HNRNPA1 / RFU, RNF170 / Fold change vs veh, RNF170 / RFU, ZNF28 / Fold change vs veh, ZNF28 / RFU, RNGTT / Fold change vs veh, RNGTT / RFU, OGT / Fold change vs veh, OGT / RFU, BRD1 / Fold change vs veh, BRD1 / RFU, MARS / Fold change vs veh, MARS / RFU, ZNF655 / Fold change vs veh, ZNF655 / RFU, FAHD1 / Fold change vs veh, FAHD1 / RFU, BDP1 / Fold change vs veh, BDP1 / RFU, LRRCC1 / Fold change vs veh, LRRCC1 / RFU, ARID1A / Fold change vs veh, ARID1A / RFU, ZNF146 / Fold change vs veh, ZNF146 / RFU, ZNF330 / Fold change vs veh, ZNF330 / RFU, GPN3 / Fold change vs veh, GPN3 / RFU, C9orf123 / Fold change vs veh, C9orf123 / RFU, N4BP2L2 / Fold change vs veh, N4BP2L2 / RFU, ARFIP1 / Fold change vs veh, ARFIP1 / RFU, FAM179B / Fold change vs veh, FAM179B / RFU, BCL10 / Fold change vs veh, BCL10 / RFU, UHRF1BP1L / Fold change vs veh, UHRF1BP1L / RFU, BET1 / Fold change vs veh, BET1 / RFU, CNOT2 / Fold change vs veh, CNOT2 / RFU, ZNF268 / Fold change vs veh, ZNF268 / Fold change vs veh, ZNF507 / RFU, DGCR2 / Fold change vs veh, DGCR2 / RFU, WDSUB1 / Fold change vs veh, WDSUB1 / Fold change vs veh, HSP90B1 /// MIR3652 / RFU, ADSS / Fold change vs veh, ADSS / RFU, GK / Fold change vs veh, GK / RFU, ZNF148 / Fold change vs veh, ZNF148 / RFU, TAF9 / Fold change vs veh, TAF9 / RFU, SLC1A5 / Fold change vs veh, SLC1A5 / RFU, SLMO2 / Fold change vs veh, SLMO2 / RFU, ABCC4 / Fold change vs veh, ABCC4 / RFU, LOC101060439 /// RAP1B / Fold change vs veh, LOC101060439 /// RAP1B / RFU, RFX7 / Fold change vs veh, RFX7 / RFU, GTPBP10 / Fold change vs veh, GTPBP10 / RFU, CNEP1R1 / Fold change vs veh, CNEP1R1 / RFU, BIVM-ERCC5 /// ERCC5 / Fold change vs veh, BIVM-ERCC5 /// ERCC5 / RFU, ILF3 / Fold change vs veh, ILF3 / RFU 11762660_at / Fold change /veh 11762660_at / RFU VCAN (11757783_s_at) / Fold change /veh VCAN (11757783_s_at) / RFU DDX43 (11728927_at) / Fold change /veh DDX43 (11728927_at) / RFU KRT8 (11758188_x_at) / Fold change /veh KRT8 (11758188_x_at) / RFU NKD1 (11759106_at) / Fold change /veh NKD1 (11759106_at) / RFU SRD5A1 (11742802_a_at) / Fold change /veh SRD5A1 (11742802_a_at) / RFU TPSAB1 /// TPSB2 (11721975_s_at) / Fold change /veh TPSAB1 /// TPSB2 (11721975_s_at) / RFU GSTM3 (11746129_a_at) / Fold change /veh GSTM3 (11746129_a_at) / RFU IL23R (11737362_x_at) / Fold change /veh IL23R (11737362_x_at) / RFU TMEM51 (11727254_a_at) / Fold change /veh TMEM51 (11727254_a_at) / RFU PIWIL2 (11732686_x_at) / Fold change /veh PIWIL2 (11732686_x_at) / RFU ORM1 (11744905_x_at) / Fold change /veh ORM1 (11744905_x_at) / RFU CCDC152 (11743942_at) / Fold change /veh CCDC152 (11743942_at) / RFU ECM1 (11717891_a_at) / Fold change /veh ECM1 (11717891_a_at) / RFU IL23R (11748794_a_at) / Fold change /veh IL23R (11748794_a_at) / RFU TNFAIP8L3 (11732012_x_at) / Fold change /veh TNFAIP8L3 (11732012_x_at) / RFU MBOAT4 (11741988_at) / Fold change /veh MBOAT4 (11741988_at) / RFU 11764193_at / Fold change /veh 11764193_at / RFU TMEM53 (11763286_at) / Fold change /veh TMEM53 (11763286_at) / RFU MAGEB2 (11727129_at) / Fold change /veh MAGEB2 (11727129_at) / RFU TMEM200A (11744735_a_at) / Fold change /veh TMEM200A (11744735_a_at) / RFU CCDC152 (11751479_a_at) / Fold change /veh CCDC152 (11751479_a_at) / RFU FAM211A (11726209_a_at) / Fold change /veh FAM211A (11726209_a_at) / RFU RGS16 (11746705_a_at) / Fold change /veh RGS16 (11746705_a_at) / RFU VCAN (11755009_s_at) / Fold change /veh VCAN (11755009_s_at) / RFU RHOB (11743442_s_at) / Fold change /veh RHOB (11743442_s_at) / RFU RGS16 (11720943_a_at) / Fold change /veh RGS16 (11720943_a_at) / RFU RGS16 (11720944_at) / Fold change /veh RGS16 (11720944_at) / RFU, VPS4B / Fold change vs veh, VPS4B / RFU, CREB1 / Fold change vs veh, CREB1 / RFU, DNAJC13 / Fold change vs veh, DNAJC13 / RFU, GNAQ / Fold change vs veh, GNAQ / RFU, CDK5R1 / Fold change vs veh, CDK5R1 / RFU, ZRANB3 / Fold change vs veh, ZRANB3 / RFU, CUL4A / Fold change vs veh, CUL4A / RFU, CCNY / Fold change vs veh, CCNY / RFU, UFL1 / Fold change vs veh, UFL1 / RFU, COG3 / Fold change vs veh, COG3 / RFU, DIAPH2 / Fold change vs veh, DIAPH2 / RFU, SKA2 / Fold change vs veh, SKA2 / RFU, AFF3 / Fold change vs veh, AFF3 / RFU, LMF1 / Fold change vs veh, LMF1 / RFU, IPO11 / Fold change vs veh, IPO11 / RFU, DFFB / Fold change vs veh, DFFB / RFU, FOXP1 / Fold change vs veh, FOXP1 / RFU, CARD8 / Fold change vs veh, CARD8 / RFU, STRN3 / Fold change vs veh, STRN3 / RFU, ADK / Fold change vs veh, ADK / RFU, RASSF2 / Fold change vs veh, RASSF2 / RFU, WIPF1 / Fold change vs veh, WIPF1 / RFU, LARP1B / Fold change vs veh, LARP1B / RFU, RASA1 / Fold change vs veh, RASA1 / RFU, RB1 / Fold change vs veh, RB1 / RFU, PPFIA1 / Fold change vs veh, PPFIA1 / RFU, MAT2A / Fold change vs veh, MAT2A / RFU, CCT5 / Fold change vs veh, CCT5 / RFU, WDR92 / Fold change vs veh, WDR92 / RFU, CUX1 / Fold change vs veh, CUX1 / RFU, TTC7A / Fold change vs veh, TTC7A / RFU, TMEM135 / Fold change vs veh, TMEM135 / RFU, DEPTOR / Fold change vs veh, DEPTOR / RFU, CPM / Fold change vs veh, CPM / RFU, DNAJB6 / Fold change vs veh, DNAJB6 / RFU, CACNA2D3 / Fold change vs veh, CACNA2D3 / RFU, DTX4 / Fold change vs veh, DTX4 / RFU, TFCP2 / Fold change vs veh, TFCP2 / RFU, GMCL1 /// GMCL1P1 / Fold change vs veh, GMCL1 /// GMCL1P1 / RFU, AEBP2 / Fold change vs veh, AEBP2 / RFU, SNHG1 /// SNORD22 /// SNORD25 /// SNORD26 /// SNORD27 /// SNORD28 /// SNORD29 /// SNORD31 / Fold change vs veh, SNHG1 /// SNORD22 /// SNORD25 /// SNORD26 /// SNORD27 /// SNORD28 /// SNORD29 /// SNORD31 / Fold change (Aza/veh), C12orf56 (ProbeSet 11735607_a_at) / Fold change (ACY-1035/veh), C12orf56 (ProbeSet 11735607_a_at) / Fold change (Aza/veh), FGFR1OP (ProbeSet 11751329_s_at) / Fold change (ACY-1035/veh), FGFR1OP (ProbeSet 11751329_s_at) / Fold change (Aza/veh), VPS36 (ProbeSet 11739960_a_at) / Fold change (ACY-1035/veh), VPS36 (ProbeSet 11739960_a_at) / RFU SYPL1 (11715823_x_at) / Fold change /veh SYPL1 (11715823_x_at) / RFU IGFBP7 (11715501_s_at) / Fold change /veh IGFBP7 (11715501_s_at) / RFU REEP3 (11722064_at) / Fold change /veh REEP3 (11722064_at) / RFU IGLL1 (11728026_x_at) / Fold change /veh IGLL1 (11728026_x_at): dose or concentration left out as unconfirmed
Conditions: ProbeSet 11723930_at; LIST D

SMILES: Nc1ccc(-c2cccs2)cc1NC(=O)c1ccc2c(c1)cc(C1CC1)n2CCN1CCOCC1 [ACY-1035]
- Fold change vs veh, CCT5: 0.85
